According to patent US20110280849A1, “TUMOR SUPPRESSION USING HUMAN PLACENTA-DERIVED INTERMEDIATE NATURAL KILLER CELLS AND IMMUNOMODULATORY COMPOUNDS” (Anthrogenesis Corporation, priority 2010, published 2011):

Tests used:
NK cells = experiment: Flow cytometry of GZMB-positive NK cells after pomalidomide; format: cell-based, human
cultured PINK cells = experiment: qRT-PCR gene expression in lenalidomide- or pomalidomide-treated cultured PINK cells
Description: Quantitative real-time (qRT-PCR) analysis. Isolated RNA can then be used for cDNA synthesis using TAQMAN® Reverse Transcription Reagents (Applied Biosystems, Cat #N8080234) followed by real-time PCR analysis by the 7900HT Fast Real-Time PCR System using Human Immune Array (Applied Biosystems, Cat #4370573) and Human MicroRNA Array (Applied Biosystems, Cat #4384792).
The paired t-test is used to determine if fold changes are equal in lenalidomide-treated and -untreated samples. […] The paired t-test is used to determine if fold changes are equal in treated and untreated samples.

Nc1cccc2c1C(=O)N(C1CCC(=O)NC1=O)C2=O (racemic) [pomalidomide, 4-amino-2-[(3RS)-2,6-dioxopiperidin-3-yl)-1H-isoindole-1,3(2H)-dione]
increase in percentage of GZMB-positive NK cells (NK cells): 25% | increase in granzyme B (GZMB) gene expression (cultured PINK cells): 60%±1.7%
